Assay type in all cases: cell-based
For one experiment, the target named is T1, human TLR8 (Homo sapiens, UniProt Q9NR97).
T1 construct: host or cells: HEK-Blue cells
T1 sequence (Q9NR97 27-1041): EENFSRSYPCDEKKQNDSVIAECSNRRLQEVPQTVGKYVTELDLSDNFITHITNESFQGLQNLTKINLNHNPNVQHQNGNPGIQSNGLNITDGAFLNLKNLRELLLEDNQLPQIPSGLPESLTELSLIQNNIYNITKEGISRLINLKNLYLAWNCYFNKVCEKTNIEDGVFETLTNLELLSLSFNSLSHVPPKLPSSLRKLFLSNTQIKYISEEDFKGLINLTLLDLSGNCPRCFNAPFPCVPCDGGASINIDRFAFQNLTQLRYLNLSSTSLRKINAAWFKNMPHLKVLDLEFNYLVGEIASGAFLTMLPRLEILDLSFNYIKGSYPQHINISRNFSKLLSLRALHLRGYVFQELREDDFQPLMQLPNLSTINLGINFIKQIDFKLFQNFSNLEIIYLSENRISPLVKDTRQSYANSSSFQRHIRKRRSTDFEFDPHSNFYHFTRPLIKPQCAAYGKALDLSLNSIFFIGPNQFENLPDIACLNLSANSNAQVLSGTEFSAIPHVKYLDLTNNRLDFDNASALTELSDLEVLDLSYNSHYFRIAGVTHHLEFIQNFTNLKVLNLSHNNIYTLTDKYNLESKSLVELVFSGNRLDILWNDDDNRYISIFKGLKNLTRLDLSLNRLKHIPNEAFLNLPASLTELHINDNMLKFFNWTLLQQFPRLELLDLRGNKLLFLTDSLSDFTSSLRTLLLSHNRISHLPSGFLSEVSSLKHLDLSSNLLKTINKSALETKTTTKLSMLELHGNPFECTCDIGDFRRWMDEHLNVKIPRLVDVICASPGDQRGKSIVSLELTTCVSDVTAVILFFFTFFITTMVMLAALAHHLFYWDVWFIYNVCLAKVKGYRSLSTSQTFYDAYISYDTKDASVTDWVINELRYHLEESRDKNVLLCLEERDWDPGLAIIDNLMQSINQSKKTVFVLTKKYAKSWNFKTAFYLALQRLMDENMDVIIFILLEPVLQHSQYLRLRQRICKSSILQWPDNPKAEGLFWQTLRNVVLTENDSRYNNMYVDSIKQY
The experiment is described as follows: TLR8 inhibition reporter assay (HEK-Blue cells, SEAP reporter, R848 stimulation). The settings on record: HEK-Blue cells overexpressing human TLR8, SEAP reporter, R848 15.9 μM; read-out: TLR8 IC50. In short, it runs like this: (§1)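 Screening used HEK-Blue cells overexpressing one human TLR (7, 8 or 9) and an IFN-β minimal promoter–NF-κB/AP-1 SEAP construct. Stimulation lasted 22 h at 37 °C with receptor-specific agonist: gardiquimod, R848 or ODN2006 at 7.5 μM, 15.9 μM and 5 nM.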

Another experiment has as its target T2, human TLR7 (Homo sapiens, UniProt Q9NYK1).
T2 construct: host or cells: HEK-Blue cells
T2 sequence (Q9NYK1 27-1049): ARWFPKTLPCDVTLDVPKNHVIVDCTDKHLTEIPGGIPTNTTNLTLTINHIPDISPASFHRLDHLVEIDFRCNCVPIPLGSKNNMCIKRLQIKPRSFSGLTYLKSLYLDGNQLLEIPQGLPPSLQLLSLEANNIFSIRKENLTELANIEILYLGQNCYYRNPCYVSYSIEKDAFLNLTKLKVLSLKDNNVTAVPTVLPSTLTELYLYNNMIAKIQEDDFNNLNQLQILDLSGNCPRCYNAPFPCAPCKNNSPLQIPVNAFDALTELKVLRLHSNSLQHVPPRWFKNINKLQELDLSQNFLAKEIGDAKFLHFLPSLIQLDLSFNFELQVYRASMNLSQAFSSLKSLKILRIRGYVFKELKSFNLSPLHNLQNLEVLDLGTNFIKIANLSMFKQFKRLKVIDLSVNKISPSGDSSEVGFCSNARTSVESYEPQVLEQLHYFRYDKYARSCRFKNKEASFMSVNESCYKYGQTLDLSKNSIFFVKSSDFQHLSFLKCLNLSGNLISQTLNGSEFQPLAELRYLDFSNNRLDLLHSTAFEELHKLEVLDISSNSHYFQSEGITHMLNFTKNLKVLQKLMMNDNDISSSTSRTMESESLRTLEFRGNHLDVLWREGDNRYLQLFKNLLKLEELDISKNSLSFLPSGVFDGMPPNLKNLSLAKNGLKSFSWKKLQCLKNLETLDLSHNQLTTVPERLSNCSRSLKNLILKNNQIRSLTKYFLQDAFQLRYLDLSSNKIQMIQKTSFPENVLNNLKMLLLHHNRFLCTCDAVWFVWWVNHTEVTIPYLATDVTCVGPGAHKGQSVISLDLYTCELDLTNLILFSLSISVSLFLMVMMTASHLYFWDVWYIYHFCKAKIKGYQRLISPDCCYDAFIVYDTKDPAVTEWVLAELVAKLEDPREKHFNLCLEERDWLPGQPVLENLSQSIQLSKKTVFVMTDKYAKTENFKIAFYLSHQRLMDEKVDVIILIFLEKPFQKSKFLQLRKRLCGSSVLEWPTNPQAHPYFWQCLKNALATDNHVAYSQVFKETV
The experiment in a line: TLR7 inhibition reporter assay (HEK-Blue cells, SEAP reporter, gardiquimod stimulation). The settings on record: HEK-Blue cells overexpressing human TLR7, SEAP reporter, gardiquimod 7.5 μM; read-out: TLR7 IC50. In short, it runs like this: as §1

The target of the next experiment is T3, human TLR9 (Homo sapiens, UniProt Q9NR96).
T3 construct: host or cells: HEK-Blue cells
T3 sequence (Q9NR96 26-1032): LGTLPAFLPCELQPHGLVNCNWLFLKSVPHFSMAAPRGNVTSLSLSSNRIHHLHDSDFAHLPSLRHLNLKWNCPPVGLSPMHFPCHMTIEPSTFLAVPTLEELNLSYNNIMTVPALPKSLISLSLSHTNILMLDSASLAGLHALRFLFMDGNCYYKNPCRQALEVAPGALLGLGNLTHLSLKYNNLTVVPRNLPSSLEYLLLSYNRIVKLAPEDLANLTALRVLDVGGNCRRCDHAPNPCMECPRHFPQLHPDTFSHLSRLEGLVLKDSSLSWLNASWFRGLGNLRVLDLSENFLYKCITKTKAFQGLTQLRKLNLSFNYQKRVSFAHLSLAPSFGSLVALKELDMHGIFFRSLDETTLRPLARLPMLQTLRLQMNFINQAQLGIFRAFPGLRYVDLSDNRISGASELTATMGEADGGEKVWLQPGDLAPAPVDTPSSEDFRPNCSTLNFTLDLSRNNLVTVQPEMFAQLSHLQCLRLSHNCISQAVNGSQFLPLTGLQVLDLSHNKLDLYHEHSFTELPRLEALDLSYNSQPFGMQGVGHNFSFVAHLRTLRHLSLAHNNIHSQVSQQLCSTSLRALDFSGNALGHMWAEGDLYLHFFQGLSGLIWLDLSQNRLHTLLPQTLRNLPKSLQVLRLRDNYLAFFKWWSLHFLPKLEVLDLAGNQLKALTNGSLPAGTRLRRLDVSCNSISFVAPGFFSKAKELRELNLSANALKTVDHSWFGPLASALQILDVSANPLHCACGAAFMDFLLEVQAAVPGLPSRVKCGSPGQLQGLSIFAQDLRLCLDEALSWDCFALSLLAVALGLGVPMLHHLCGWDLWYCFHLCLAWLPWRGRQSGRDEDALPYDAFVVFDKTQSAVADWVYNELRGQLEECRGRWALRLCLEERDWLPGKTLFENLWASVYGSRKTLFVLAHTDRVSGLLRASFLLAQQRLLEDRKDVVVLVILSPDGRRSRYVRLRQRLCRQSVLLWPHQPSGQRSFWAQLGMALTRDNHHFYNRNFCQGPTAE
The experiment in a line: TLR9 inhibition reporter assay (HEK-Blue cells, SEAP reporter, ODN2006 stimulation). The settings on record: HEK-Blue cells overexpressing human TLR9, SEAP reporter, ODN2006 5 nM. In short, it runs like this:
as §1

Where only a bound is given, the exact number is not on record here.

For the molecule `Cc1c(-c2[nH]c3sc(N4CCN(CC5CCOCC5)C[C@H]4C)nc3c2C(C)C)cn2ncnc2c1C` [Example 317, (R)-5-(7,8-dimethyl-[1,2,4]triazolo[1,5-a]pyridin-6-yl)-6-isopropyl-2-(2-methyl-4-((tetrahydro-2H-pyran-4-yl)methyl)piperazin-1-yl)-4H-pyrrolo[3,2-d]thiazole], the results for the IC50 on human TLR8, at human TLR7 and on human TLR9 were 4.22 nM, 9.47 nM and 44400 nM, respectively.

Consider `COc1cc(-c2[nH]c3sc(C4CCC(NC(=O)CN(C)C)CC4)nc3c2C(C)C)cn2ncnc12` (stereo not drawn) [Example 126, 2-(dimethylamino)-N-(4-(6-isopropyl-5-(8-methoxy-[1,2,4]triazolo[1,5-a]pyridin-6-yl)-4H-pyrrolo[3,2-d]thiazol-2-yl)cyclohexyl)acetamide], for which the half-maximal inhibitory concentration (IC50) on human TLR8 was determined as 6.83 nM; at human TLR7 it was 0.98 nM; against human TLR9, 13200 nM.

In the case of `Cc1cc(-c2[nH]c3sc(C4CCN(CC(=O)N(C)C)CC4)nc3c2C(C)C)cc(C)n1` [Example 24, 2-(4-(5-(2,6-dimethylpyridin-4-yl)-6-isopropyl-4H-pyrrolo[3,2-d]thiazol-2-yl)piperidin-1-yl)-N,N-dimethylacetamide], the IC50 came out at 12.5 nM at human TLR8, 43.4 nM at human TLR7 and 793 nM against human TLR9.

Take `Cc1cc(-c2[nH]c3sc(C4CCC(N5CC6(COC6)C5)CC4)nc3c2C(C)C)cn2ncnc12` (single isomer, unassigned) [Example 137, 6-(4-(6-isopropyl-5-(8-methyl-[1,2,4]triazolo[1,5-a]pyridin-6-yl)-4H-pyrrolo[3,2-d]thiazol-2-yl)cyclohexyl)-2-oxa-6-azaspiro[3.3]heptane]: the IC50 at human TLR8 was 40.8 nM; on human TLR7 it was 3.4 nM; at human TLR9 it was 6730 nM.

In the case of `Cc1c(-c2[nH]c3sc(N4C[C@@H](C)N(CC5CC5)C[C@@H]4C)nc3c2C(C)C)cn2ncnc2c1C` [Example 332, 2-((2S,5R)-4-(cyclopropylmethyl)-2,5-dimethylpiperazin-1-yl)-5-(7,8-dimethyl-[1,2,4]triazolo[1,5-a]pyridin-6-yl)-6-isopropyl-4H-pyrrolo[3,2-d]thiazole], the IC50 came out at 1.91 nM on human TLR8, 16.9 nM at human TLR7 and 10200 nM against human TLR9.

`Cc1c(-c2[nH]c3sc(C4CCC(NC5COC5)CC4)nc3c2C(C)C)cn(C)c(=O)c1C` (single isomer, unassigned) [Example 242, 5-(6-isopropyl-2-(4-(oxetan-3-ylamino)cyclohexyl)-4H-pyrrolo[3,2-d]thiazol-5-yl)-1,3,4-trimethylpyridin-2(1H)-one]: the concentration for half-maximal inhibition (IC50) at human TLR8 is 16.1 nM; on human TLR7, 47.1 nM; against human TLR9 it was more than 50000 nM.

`Cc1c(-c2[nH]c3sc(C4CCC(NC5CCS(=O)(=O)C5)CC4)nc3c2C(C)C)cn2ncnc2c1C` (single isomer, unassigned) [Example 231, 3-((4-(5-(7,8-dimethyl-[1,2,4]triazolo[1,5-a]pyridin-6-yl)-6-isopropyl-4H-pyrrolo[3,2-d]thiazol-2-yl)cyclohexyl)amino)tetrahydrothiophene 1,1-dioxide]: the IC50 at human TLR8 worked out at 1.19 nM; at human TLR7, 6.32 nM; against human TLR9, 49500 nM.

Regarding `Cc1c(-c2[nH]c3sc(C4CCC(NC5COC5)CC4)nc3c2C(C)C)cn2ncnc2c1C` (single isomer, unassigned) [Example 185, N-(4-(5-(7,8-dimethyl-[1,2,4]triazolo[1,5-a]pyridin-6-yl)-6-isopropyl-4H-pyrrolo[3,2-d]thiazol-2-yl)cyclohexyl)oxetan-3-amine], the IC50 on human TLR8 turned out to be 3.38 nM; at human TLR7 it was 7.42 nM; at human TLR9 it was 23000 nM.

Turning to `Cc1c(-c2[nH]c3sc(C4CCC(NC(C)C)CC4)nc3c2C(C)C)cn(C)c(=O)c1C` (single isomer, unassigned) [Example 254, 5-(6-isopropyl-2-(4-(isopropylamino)cyclohexyl)-4H-pyrrolo[3,2-d]thiazol-5-yl)-1,3,4-trimethylpyridin-2(1H)-one], the IC50 at human TLR8 was 22.7 nM; at human TLR7, 26.8 nM; on human TLR9, 29200 nM.

Consider `Cc1c(-c2[nH]c3sc(C4CCC(NCC(C)(C)O)CC4)nc3c2C(C)C)cn(C)c(=O)c1C` (single isomer, unassigned) [Example 251, 5-(2-(4-((2-hydroxy-2-methylpropyl)amino)cyclohexyl)-6-isopropyl-4H-pyrrolo[3,2-d]thiazol-5-yl)-1,3,4-trimethylpyridin-2(1H)-one], for which the figures for the IC50 on human TLR8, at human TLR7 and against human TLR9 were 2.68 nM, 10.6 nM and 45300 nM, respectively.

With `Cc1cc(-c2[nH]c3sc(C4CCC(NCC5(CO)CC5)CC4)nc3c2C(C)C)cn2ncnc12` (single isomer, unassigned) [Example 143, (1-(((4-(6-isopropyl-5-(8-methyl-[1,2,4]triazolo[1,5-a]pyridin-6-yl)-4H-pyrrolo[3,2-d]thiazol-2-yl)cyclohexyl)amino)methyl)cyclopropyl)methanol], the IC50 at human TLR8 worked out at 19.6 nM; on human TLR7 it was 5.34 nM; against human TLR9 it was 9280 nM.

The record behind these values is US20230139171A1 (SITA Information Networking Computing UK Limited, priority 2019, published 2023).
